Molecules are shown by their SMILES.

From patent publication US11149031B2, “Substituted N-(3-fluoropropyl)-pyrrolidine compounds, processes for their preparation and therapeutic uses thereof” (SANOFI, priority 2016, dated 2021) come the findings set out here.

Experiment [1] addresses His6-ERα298-554 D538G mutant (ERα ligand-binding domain) (Homo sapiens (Human), UniProt P03372, D538G). Nature of the experiment: Test A: biochemical antagonist activity, LanthaScreen TR-FRET ERα coactivator assay, D538G mutant. The following applies: protocol with 3 nM estradiol; read-out: Antagonism D538G IC50. The method, boiled down: (§1)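 TR-FRET 520:495 nm emission ratio read after overnight room-temperature incubation; IC50 derived by 4-parameter logistic fit. Mix: 0.5 nM receptor LBD, 0.5 nM Tb-His6 antibody, 250 nM PGC1a peptide, 3 nM or 10 nM estradiol, pH 7.4 phosphate buffer.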

The target in experiment [2] is His6-ERα298-554 Y537S mutant (ERα ligand-binding domain) (Homo sapiens (Human), UniProt P03372, Y537S). Description: Test A: biochemical antagonist activity, LanthaScreen TR-FRET ERα coactivator assay, Y537S mutant. To be noted: protocol with 3 nM estradiol; read-out: Antagonism Y537S IC50. The method, boiled down:
as §1

In experiment [3] the target is His6-ERα298-554 WT (ERα ligand-binding domain) (Homo sapiens (Human), UniProt P03372). Nature of the experiment: Test A: biochemical antagonist activity, LanthaScreen TR-FRET ERα coactivator assay, WT. To be noted: protocol with 3 nM estradiol; read-out: Antagonism WT IC50. The method, boiled down:
as §1

The next experiment has as its target ERα in MCF7 cells (Homo sapiens (Human), UniProt P03372). Description: Test C: estrogen receptor degradation activity, ERα in cell western assay in MCF7 cells. In kind it is cell-based. To be noted: for DC50: 4 hours post compound addition, ERα in cell western, read-out: Degradation IC50; for % Degradation at 3 μM: 4 hours, relative to fulvestrant. The method, boiled down: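 Cells seeded in stripped-serum medium are dosed the next day across a nine-concentration series (3 down to 0.000018 μM). Four hours later they are fixed, blocked, probed overnight with anti-ERα antibody, then labelled with an Alexa 488 secondary and a DNA dye before plate scanning.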

Sequence of His6-ERα298-554 D538G mutant (ERα ligand-binding domain) (P03372 298-554 D538G): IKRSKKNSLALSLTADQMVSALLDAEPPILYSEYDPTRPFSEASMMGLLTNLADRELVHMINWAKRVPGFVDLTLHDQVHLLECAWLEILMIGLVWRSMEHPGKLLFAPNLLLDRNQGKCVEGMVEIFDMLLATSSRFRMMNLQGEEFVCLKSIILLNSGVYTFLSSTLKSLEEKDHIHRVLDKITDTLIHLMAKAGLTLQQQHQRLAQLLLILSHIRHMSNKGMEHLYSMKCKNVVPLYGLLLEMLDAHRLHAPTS
Sequence of His6-ERα298-554 WT (ERα ligand-binding domain) (P03372 298-554): as the sequence (P03372 298-554 D538G) above, with G241D counted along it
Sequence of His6-ERα298-554 Y537S mutant (ERα ligand-binding domain) (P03372 298-554 Y537S): as the sequence (P03372 298-554 D538G) above, with Y240S, G241D counted along it
Sequence of ERα in MCF7 cells (P03372 whole entry): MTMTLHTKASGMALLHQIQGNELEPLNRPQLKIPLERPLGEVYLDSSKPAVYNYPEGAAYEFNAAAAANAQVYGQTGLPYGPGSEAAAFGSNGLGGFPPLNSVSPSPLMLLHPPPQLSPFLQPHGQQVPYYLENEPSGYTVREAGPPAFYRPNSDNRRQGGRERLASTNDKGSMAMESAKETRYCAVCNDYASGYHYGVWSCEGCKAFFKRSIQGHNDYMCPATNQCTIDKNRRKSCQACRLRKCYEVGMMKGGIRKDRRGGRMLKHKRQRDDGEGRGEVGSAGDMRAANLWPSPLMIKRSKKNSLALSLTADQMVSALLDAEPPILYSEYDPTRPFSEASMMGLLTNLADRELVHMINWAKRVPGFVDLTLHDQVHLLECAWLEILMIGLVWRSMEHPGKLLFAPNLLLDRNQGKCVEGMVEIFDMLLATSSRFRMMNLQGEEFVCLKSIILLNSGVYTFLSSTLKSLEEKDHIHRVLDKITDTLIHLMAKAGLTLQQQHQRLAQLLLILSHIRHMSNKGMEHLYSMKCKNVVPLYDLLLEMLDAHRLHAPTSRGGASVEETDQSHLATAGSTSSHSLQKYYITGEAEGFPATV

As for `Cc1cc2c(cc1O)OCCC(c1cccc(O)c1)=C2c1ccc(O[C@H]2CCN(CCCF)C2)cc1` [Example 136, 5-[4-[(3S)-1-(3-fluoropropyl)pyrrolidin-3-yl]oxyphenyl]-4-(3-hydroxyphenyl)-7-methyl-2,3-dihydro-1-benzoxepin-8-ol], the IC50 was found to be 59 nM in experiment [1], 44 nM in experiment [2] and 4 nM in experiment [3]. The DC50 at ERα in MCF7 cells came out at 1 nM. Further, on ERα in MCF7 cells, the “% Degradation at 3 μM” value was determined as 79%.

Regarding `Cc1cc2c(cc1O)OCCC(c1ccc3c(c1)CCN3)=C2c1ccc(O[C@H]2CCN(CCCF)C2)cc1` [Example 137, 5-[4-[(3S)-1-(3-fluoropropyl)pyrrolidin-3-yl]oxyphenyl]-4-indolin-5-yl-7-methyl-2,3-dihydro-1-benzoxepin-8-ol], the IC50 in experiment [1] was found to be 1710 nM; in experiment [2], 1220 nM; in experiment [3], 250 nM. The DC50 at ERα in MCF7 cells amounted to 5 nM. On ERα in MCF7 cells, the “% Degradation at 3 μM” value is given as 75%.

On to `Cc1cc2c(cc1O)OCCC(c1ccc3[nH]ccc3c1)=C2c1ccc(O[C@H]2CCN(CCCF)C2)cc1` [Example 139, 5-[4-[(3S)-1-(3-fluoropropyl)pyrrolidin-3-yl]oxyphenyl]-4-(1H-indol-5-yl)-7-methyl-2,3-dihydro-1-benzoxepin-8-ol], for which the IC50 in experiment [1] was 1170 nM; in experiment [2], 819 nM; in experiment [3] it was 68 nM. Besides, the DC50 on ERα in MCF7 cells was 9 nM. In addition, the “% Degradation at 3 μM” value on ERα in MCF7 cells amounted to 73%.

For `Cc1ccc(C2=C(c3ccc(O[C@H]4CCN(CCCF)C4)cc3)c3cc(C)c(O)cc3OCC2)c(F)c1` [Example 140, 4-(2-fluoro-4-methyl-phenyl)-5-[4-[(3S)-1-(3-fluoropropyl)pyrrolidin-3-yl]oxyphenyl]-7-methyl-2,3-dihydro-1-benzoxepin-8-ol], the values for the IC50 in experiment [1], in experiment [2] and in experiment [3] were 644 nM, 542 nM and 36 nM, respectively. For the same compound, the DC50 at ERα in MCF7 cells amounted to 3 nM. Moreover, the “% Degradation at 3 μM” value at ERα in MCF7 cells is reported as 85%.

As for `Oc1cccc(C2=C(c3ccc(O[C@H]4CCN(CCCF)C4)cc3)c3ccc(O)cc3SCC2)c1` [Example 158, 5-[4-[(3S)-1-(3-fluoropropyl)pyrrolidin-3-yl]oxyphenyl]-4-(3-hydroxyphenyl)-2,3-dihydro-1-benzothiepin-8-ol], the values for the half-maximal inhibitory concentration (IC50) in experiment [1], in experiment [2] and in experiment [3] were 4 nM, 3 nM and 1 nM, respectively. Further, the DC50 on ERα in MCF7 cells came out at 0.2 nM. The “% Degradation at 3 μM” value at ERα in MCF7 cells came out at 88%.

In the case of `Oc1ccc2c(c1)SCCC(c1ccc(F)cc1Cl)=C2c1ccc(O[C@H]2CCN(CCCF)C2)cc1` [Example 159, 4-(2-chloro-4-fluoro-phenyl)-5-[4-[(3S)-1-(3-fluoropropyl)pyrrolidin-3-yl]oxyphenyl]-2,3-dihydro-1-benzothiepin-8-ol], the IC50 came to 17 nM in experiment [1], 10 nM in experiment [2] and 3 nM in experiment [3]. Further, the DC50 on ERα in MCF7 cells came to 0.5 nM. Moreover, the “% Degradation at 3 μM” value on ERα in MCF7 cells is 89%.

As to `Oc1ccc2c(c1)SCCC(c1ccc3[nH]ccc3c1)=C2c1ccc(O[C@H]2CCN(CCCF)C2)cc1` [Example 160, 5-[4-[(3S)-1-(3-fluoropropyl)pyrrolidin-3-yl]oxyphenyl]-4-(1H-indol-5-yl)-2,3-dihydro-1-benzothiepin-8-ol], the values for the IC50 in experiment [1], in experiment [2] and in experiment [3] were 13 nM, 8 nM and 3 nM, respectively. Further, the DC50 at ERα in MCF7 cells turned out to be 0.2 nM. For the same compound, the “% Degradation at 3 μM” value on ERα in MCF7 cells worked out at 75%.

For the compound `Oc1ccc2c(c1)SCCC(c1ccc(Cl)c(F)c1)=C2c1ccc(O[C@H]2CCN(CCCF)C2)cc1` [Example 161, 4-(4-chloro-3-fluoro-phenyl)-5-[4-[(3S)-1-(3-fluoropropyl)pyrrolidin-3-yl]oxyphenyl]-2,3-dihydro-1-benzothiepin-8-ol], the IC50 in experiment [1] came to 31 nM; in experiment [2] it was 22 nM; in experiment [3], 6 nM. At ERα in MCF7 cells, the DC50 turned out to be 0.7 nM. The “% Degradation at 3 μM” value on ERα in MCF7 cells stood at 93%.
